Source: ChEMBL document CHEMBL5724914, “Linking interpersonal differences in gut microbiota composition and drug biotransformation activity” (2024)

Legend:
[1] = (§1) The drug is tested on Z-029 corresponding to rat gut metagenome with ENA study accession number: PRJEB37062 and ENA sample accession number: ERS12561828 for biotransformation under anaerobic condition. The drug concentrations were measured over 9 timepoints collected between 0 and 24 hours of incubation by liquid-chromatography-coupled mass spectrometry (LC–MS); details: 2 µM
[2] = as §1, with “on Z-028” for “on Z-029”, “to mouse” for “to rat”, “number: ERS12561827” for “number: ERS12561828”; details: 2 µM
[3] = as §1, with “on Z-022” for “on Z-029”, “to mouse” for “to rat”, “number: ERS12561821” for “number: ERS12561828”; details: 2 µM
[4] = as §1, with “on Z-020” for “on Z-029”, “to rabbit” for “to rat”, “number: ERS12561819” for “number: ERS12561828”; details: 2 µM
[5] = as §1, with “Z-007” for “Z-029”, “ERS12561807” for “ERS12561828”; details: 2 µM
[6] = as §1, with “on WLS-240” for “on Z-029”, “to human” for “to rat”, “number: ERS12561773” for “number: ERS12561828”; details: 2 µM
[7] = as §1, with “on WLS-220” for “on Z-029”, “to human” for “to rat”, “number: ERS12561769” for “number: ERS12561828”; details: 2 µM
[8] = as §1, with “on WLS-170” for “on Z-029”, “to human” for “to rat”, “number: ERS12561762” for “number: ERS12561828”; details: 2 µM
[9] = as §1, with “on WLS-077” for “on Z-029”, “to human” for “to rat”, “number: ERS12561750” for “number: ERS12561828”; details: 2 µM
[10] = as §1, with “on WLS-052” for “on Z-029”, “to human” for “to rat”, “number: ERS12561747” for “number: ERS12561828”; details: 2 µM
[11] = human gut metagenome, 24 h, 2 µM
[12] = human gut metagenome, 24 h, 2 µM; remark: listed apart in the source
[13] = human gut metagenome, 24 h, 2 µM; remark: listed apart in the source
[14] = human gut metagenome, 24 h, 2 µM; remark: listed apart in the source
[15] = human gut metagenome, 24 h, 2 µM; remark: listed apart in the source
[16] = human gut metagenome, 24 h, 2 µM; remark: listed apart in the source
[17] = human gut metagenome, 24 h, 2 µM; remark: listed apart in the source
[18] = human gut metagenome, 24 h, 2 µM; remark: listed apart in the source
[19] = human gut metagenome, 24 h, 2 µM; remark: listed apart in the source
[20] = human gut metagenome, 24 h, 2 µM; remark: listed apart in the source
Note: call rule not given here.

SMILES | Bacterial Biotransformation [1] | Bacterial Biotransformation [2] | Bacterial Biotransformation [3] | Bacterial Biotransformation [4] | Bacterial Biotransformation [5] | Bacterial Biotransformation [6] | Bacterial Biotransformation [7] | Bacterial Biotransformation [8] | Bacterial Biotransformation [9] | Bacterial Biotransformation [10] | Bacterial Biotransformation [11] | Bacterial Biotransformation [12] | Bacterial Biotransformation [13] | Bacterial Biotransformation [14] | Bacterial Biotransformation [15] | Bacterial Biotransformation [16] | Bacterial Biotransformation [17] | Bacterial Biotransformation [18] | Bacterial Biotransformation [19] | Bacterial Biotransformation [20]
CN(CCOc1ccc(CC2SC(=O)NC2=O)cc1)c1ccccn1.O=C(O)/C=C\C(=O)O (stereo not given) [ROSIGLITAZONE MALEATE] | Compound NOT metabolized | Compound NOT metabolized | Compound NOT metabolized | Compound NOT metabolized | Compound NOT metabolized | Compound metabolized | Compound metabolized | Compound metabolized | Compound NOT metabolized | Compound NOT metabolized | Compound NOT metabolized | Compound NOT metabolized | Compound NOT metabolized | Compound NOT metabolized | Compound NOT metabolized | Compound metabolized | Compound NOT metabolized | Compound metabolized | Compound metabolized | Compound metabolized
CC(C)c1nc(N(C)S(C)(=O)=O)nc(-c2ccc(F)cc2)c1/C=C/[C@@H](O)C[C@@H](O)CC(=O)[O-].CC(C)c1nc(N(C)S(C)(=O)=O)nc(-c2ccc(F)cc2)c1/C=C/[C@@H](O)C[C@@H](O)CC(=O)[O-].[Ca+2] [ROSUVASTATIN CALCIUM] | Compound NOT metabolized | Compound NOT metabolized | Compound NOT metabolized | Compound NOT metabolized | Compound NOT metabolized | Compound metabolized | Compound metabolized | Compound metabolized | Compound metabolized | Compound metabolized | Compound metabolized | Compound NOT metabolized | Compound NOT metabolized | Compound metabolized | Compound NOT metabolized | Compound metabolized | Compound NOT metabolized | Compound metabolized | Compound metabolized | Compound metabolized
O=C(O)c1cc(/N=N/c2ccc(S(=O)(=O)Nc3ccccn3)cc2)ccc1O [SULFASALAZINE] | Compound metabolized | Compound metabolized | Compound metabolized | Compound metabolized | Compound metabolized | Compound metabolized | Compound metabolized | Compound metabolized | Compound metabolized | Compound NOT metabolized | Compound metabolized | Compound metabolized | Compound metabolized | Compound metabolized | Compound metabolized | Compound metabolized | Compound metabolized | Compound metabolized | Compound metabolized | Compound metabolized
C=CC[C@@H]1/C=C(\C)C[C@H](C)C[C@H](OC)[C@H]2O[C@@](O)(C(=O)C(=O)N3CCCC[C@H]3C(=O)O[C@H](/C(C)=C/[C@@H]3CC[C@@H](O)[C@H](OC)C3)[C@H](C)[C@@H](O)CC1=O)[C@H](C)C[C@@H]2OC.O [TACROLIMUS] | Compound NOT metabolized | Compound NOT metabolized | Compound NOT metabolized | Compound NOT metabolized | Compound NOT metabolized | Compound metabolized | Compound metabolized | Compound metabolized | Compound metabolized | Compound metabolized | Compound metabolized | Compound NOT metabolized | Compound metabolized | Compound metabolized | Compound metabolized | Compound metabolized | Compound metabolized | Compound metabolized | Compound metabolized | Compound NOT metabolized
CCS(=O)(=O)CCn1c([N+](=O)[O-])cnc1C [TINIDAZOLE] | Compound metabolized | Compound metabolized | Compound metabolized | Compound metabolized | Compound metabolized | Compound metabolized | Compound metabolized | Compound metabolized | Compound metabolized | Compound metabolized | Compound metabolized | Compound metabolized | Compound metabolized | Compound metabolized | Compound metabolized | Compound metabolized | Compound metabolized | Compound metabolized | Compound metabolized | Compound metabolized
COc1ccc(CN2CCNCC2)c(OC)c1OC.Cl.Cl [TRIMETAZIDINE DIHYDROCHLORIDE] | Compound NOT metabolized | Compound NOT metabolized | Compound NOT metabolized | Compound NOT metabolized | Compound NOT metabolized | Compound NOT metabolized | Compound NOT metabolized | Compound NOT metabolized | Compound NOT metabolized | Compound NOT metabolized | Compound NOT metabolized | Compound NOT metabolized | Compound NOT metabolized | Compound NOT metabolized | Compound NOT metabolized | Compound NOT metabolized | Compound NOT metabolized | Compound NOT metabolized | Compound NOT metabolized | Compound NOT metabolized
CN1[C@@H]2CC[C@H]1C[C@@H](OC(=O)c1c[nH]c3ccccc13)C2 [TROPISETRON] | Compound NOT metabolized | Compound NOT metabolized | Compound NOT metabolized | Compound NOT metabolized | Compound NOT metabolized | Compound NOT metabolized | Compound NOT metabolized | Compound NOT metabolized | Compound NOT metabolized | Compound NOT metabolized | Compound NOT metabolized | Compound NOT metabolized | Compound NOT metabolized | Compound NOT metabolized | Compound NOT metabolized | Compound NOT metabolized | Compound NOT metabolized | Compound NOT metabolized | Compound NOT metabolized | Compound NOT metabolized
